{"source": "patent US20220008359A1", "about": "“COMBINATION ANTI-CANCER PRODUCTS AND METHODS” (priority 2020, published 2022)", "system": "afatinib-resistant (AR) H1975 cells", "assay": "In-cell immunostaining of protein expression and phosphorylation, afatinib-resistant H1975 cells", "assay_type": "cell-based, human", "settings": "1975 AR; 6 h; GZ17-6.02 2 mM final curcumin, pemetrexed 500 nM; vehicle 100%", "experimental": "[…] Cells were fixed in place 6 hours after treatment and immunostaining of single cells performed to determine the levels of each protein/phosphor-protein (n=3+/−SD). * p<0.05 less than vehicle control; # p<0.05 greater than vehicle control.\nGeneration of erlotinib, afatinib and osimertinib-resistant cells. Cells were incubated in vitro with increasing concentrations of vehicle control or erlotinib or osimertinib until after ˜6 weeks the HCC827 and H1975 and H1650 cells grew with similar kinetics to sensitive cells in either erlotinib ([…]) or osimertinib ([…]), respectively. Afatinib-resistant cells were created in vivo by repeated high dosing until tumors disappeared and then regrew, as previously described.\nAssessments of protein expression and protein phosphorylation. Multi-channel fluorescence HCS microscopes perform true in-cell western blotting. Three independent cultures derived from three thawed vials of cells of a tumor were sub-cultured into individual 96-well plates. Twenty-four hours after plating, the cells are transfected with a control plasmid or a control siRNA, or with an empty vector plasmid or with plasmids to express various proteins. After another 24 hours, the cells are ready for drug exposure(s). At various time-points after the initiation of drug exposure, cells are fixed in place using paraformaldehyde and using Triton X100 for permeabilization. Standard immunofluorescent blocking procedures are employed, followed by incubation of different wells with a variety of validated primary antibodies and subsequently validated fluorescent-tagged secondary antibodies are added to each well. The microscope determines the background fluorescence in the well and in parallel randomly determines the mean fluorescent intensity of 100 cells per well.", "note": "Marks after values point to notes of the source that are not given here."}
{"smiles": "Nc1nc2[nH]cc(CCc3ccc(C(=O)N[C@@H](CCC(=O)O)C(=O)O)cc3)c2c(=O)[nH]1", "note": "[PEM, Pemetrexed]", "values": [{"measurement": "ATG5", "value": 107, "unit": "%"}, {"measurement": "Beclin1", "value": 111, "unit": "%"}, {"measurement": "CD95", "value": 101, "unit": "%"}, {"measurement": "CHOP", "value": 104, "unit": "%"}, {"measurement": "ERBB1", "value": 101, "unit": "%"}, {"measurement": "ERBB2", "value": 100, "unit": "%"}, {"measurement": "ERBB3", "value": 99, "unit": "%"}, {"measurement": "ERBB4", "value": 100, "unit": "%"}, {"measurement": "ERK2", "value": 99, "unit": "%"}, {"measurement": "FAS-L", "value": 108, "unit": "%"}, {"measurement": "GRP78", "value": 109, "unit": "%"}, {"measurement": "JAK2", "value": 100, "unit": "%"}, {"measurement": "P-AKT T308", "value": 88, "unit": "%"}, {"measurement": "P-AMPKα T172", "value": 107, "unit": "%"}, {"measurement": "P-ATG13 S318", "value": 105, "unit": "%"}, {"measurement": "P-ATM S1980", "value": 108, "unit": "%"}, {"measurement": "P-B1", "value": 93, "unit": "%"}, {"measurement": "P-B2", "value": 97, "unit": "%"}, {"measurement": "P-B3", "value": 97, "unit": "%"}, {"measurement": "P-B4", "value": 96, "unit": "%"}, {"measurement": "P-ERK1/2", "value": 98, "unit": "%"}, {"measurement": "P-JAK2", "value": "87* %"}, {"measurement": "P-NFκB S536", "value": 98, "unit": "%"}, {"measurement": "P-PDGFRβ", "value": "84* %"}, {"measurement": "P-PERK T980", "value": 102, "unit": "%"}, {"measurement": "P-SRC Y416", "value": 92, "unit": "%"}, {"measurement": "P-SRC Y527", "value": 109, "unit": "%"}, {"measurement": "P-STAT3 Y705", "value": 95, "unit": "%"}, {"measurement": "P-STAT5 Y694", "value": 94, "unit": "%"}, {"measurement": "P-ULK1 S317", "value": 105, "unit": "%"}, {"measurement": "P-ULK1 S757", "value": 95, "unit": "%"}, {"measurement": "P-c-MET", "value": 102, "unit": "%"}, {"measurement": "P-c-MT", "value": 88, "unit": "%"}, {"measurement": "P-eIF2α S51", "value": 103, "unit": "%"}, {"measurement": "P-mTOR S2448", "value": 95, "unit": "%"}, {"measurement": "P-mTOR S2481", "value": "83* %"}, {"measurement": "PDGFRβ", "value": 100, "unit": "%"}, {"measurement": "PP1", "value": 104, "unit": "%"}, {"measurement": "c-KIT", "value": 101, "unit": "%"}, {"measurement": "c-MET", "value": 100, "unit": "%"}, {"measurement": "p70 S6K", "value": 100, "unit": "%"}, {"measurement": "p70 S6K T389", "value": 97, "unit": "%"}]}
